Measured values as given in patent US6262073A, “Pharmaceutical methods of use of 5-substituted and 5,5 disubstituted-3,4-dihydroxy-2(5H)-furanones” (Oxis International Inc., priority 2000, dated 2001).

What was measured:
Type in all cases: biochemical
[1] = system: Lipid peroxidation (rat liver microsomes); assay: Lipid peroxidation screen (LPO), CCl4-induced, liver microsomes; settings: for LPO percent inhibition: 300 μM
Procedure: (§1) The compounds of the invention were screened for their anti-inflammatory activity using a series of in vitro tests the details of which are given below. The activity of various compounds against 5-lipoxygenase, cycloxygenase-1, cycloxygenase-2 and lipid peroxidase was evaluated. Results of the screening procedures are included in TABLE I, and the activity against 5-lipoxygenase at a test concentration of 1 μM in Table II.
Lipid peroxidation is a consequence of various stimuli, including reactive free radicals. Polyunsaturated fatty acids associated with plasma membranes are degraded due to enzymatic induction by reactive agents such as CCl4, leading to cellular damage. Briefly, microsomes are prepared from rat livers and the protein concentration is determined according to the method of D. Mansuy et al., Biochem. Biophys. Res. Comm. 135:1015-1021(1986). A reaction mixture consisting of 2 mg of the microsomal preparation, an NADPH generating system, 20 mM CCl4 and test compound are incubated for 12 minutes at 37° C. The reaction is terminated by the addition of a mixture of thiobarbituric acid and trichloroacetic acid. The absorbance is read at 535 nm and is proportional to the concentration of malondialdehyde. Compounds are screened at 300 μM.

[2] = target: T1, Cyclooxygenase-1 (cyclooxygenase from ram seminal vesicles) (Ovis aries, UniProt P05979); assay: Cyclooxygenase-1 screen (COX-1); settings: 300 μM
T1 construct: cyclooxygenase from ram seminal vesicles; from tissue; host or cells: ram seminal vesicles
T1 sequence (P05979 25-600): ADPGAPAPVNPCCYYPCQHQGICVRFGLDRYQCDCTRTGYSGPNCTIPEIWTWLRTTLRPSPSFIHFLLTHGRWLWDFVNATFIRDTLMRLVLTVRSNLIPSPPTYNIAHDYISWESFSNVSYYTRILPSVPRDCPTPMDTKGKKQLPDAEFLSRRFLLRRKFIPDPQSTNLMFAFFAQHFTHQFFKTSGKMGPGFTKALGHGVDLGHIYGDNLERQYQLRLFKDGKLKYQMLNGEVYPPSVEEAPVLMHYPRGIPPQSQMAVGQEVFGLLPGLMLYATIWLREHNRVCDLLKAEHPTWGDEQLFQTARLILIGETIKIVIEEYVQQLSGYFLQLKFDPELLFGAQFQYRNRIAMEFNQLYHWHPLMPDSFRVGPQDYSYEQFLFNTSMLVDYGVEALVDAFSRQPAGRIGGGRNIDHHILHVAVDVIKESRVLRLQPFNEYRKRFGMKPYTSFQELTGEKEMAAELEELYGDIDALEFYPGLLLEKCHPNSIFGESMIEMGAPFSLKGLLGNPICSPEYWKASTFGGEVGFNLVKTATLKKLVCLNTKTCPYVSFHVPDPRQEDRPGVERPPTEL
Procedure: as §1
Cyclooxygenase-1 is involved in the formation of prostaglandins and thromboxane via the oxidative metabolism of arachidonic acid. Briefly, cyclooxygenase from ram seminal vesicles is incubated with arachidonic acid (100 μm) for 2 minutes at 37° C. in the presence or absence of test compounds according to the methods of A. T. Evans et al., Biochem. Pharm. 36:2035-2037(1987) and R. Boopathy et al., Biochem J. 239:371-377 (1968). The assay is terminated by the addition of trichioroacetic acid and cyclooxygenase activity is determined by reading the absorbance at 530 nm. […]

[3] = target: T2, Cyclooxygenase-2 (prostaglandin H synthetase-2) from sheep placenta (Ovis aries, UniProt P79208); assay: Cyclooxygenase-2 screen (COX-2); settings: read-out: COX-2 percent inhibition
T2 construct: cyclooxygenase-2 from sheep placenta; from tissue; host or cells: sheep placenta
T2 sequence (P79208 17-603): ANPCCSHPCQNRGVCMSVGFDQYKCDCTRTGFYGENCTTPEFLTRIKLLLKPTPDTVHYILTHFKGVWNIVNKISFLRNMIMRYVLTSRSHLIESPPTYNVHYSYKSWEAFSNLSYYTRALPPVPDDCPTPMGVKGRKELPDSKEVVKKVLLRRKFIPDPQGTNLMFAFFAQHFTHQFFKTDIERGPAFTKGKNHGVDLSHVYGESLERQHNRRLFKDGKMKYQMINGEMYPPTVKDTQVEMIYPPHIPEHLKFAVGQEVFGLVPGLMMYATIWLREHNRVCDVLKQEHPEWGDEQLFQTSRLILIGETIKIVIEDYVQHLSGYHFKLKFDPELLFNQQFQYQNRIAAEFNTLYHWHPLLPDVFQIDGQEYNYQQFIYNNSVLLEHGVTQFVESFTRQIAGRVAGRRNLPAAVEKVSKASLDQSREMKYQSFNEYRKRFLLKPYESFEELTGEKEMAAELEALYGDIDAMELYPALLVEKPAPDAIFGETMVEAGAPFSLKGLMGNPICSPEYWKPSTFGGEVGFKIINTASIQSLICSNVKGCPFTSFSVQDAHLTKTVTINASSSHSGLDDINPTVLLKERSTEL
Procedure: as §1
Cyclooxygenase-2, also known as prostaglandin H synthetase-2, catalyzes the rate- limiting step in the synthesis of inflammatory prostaglandins. In this reaction cyclooxygenase-2 catalyzes the oxygenation of unesterified precursors to form cyclic endoperoxide derivatives, including prostaglandin H. Briefly, cyclooxygenase-2 from sheep placenta, 14 μg/assay tube, is incubated with arachidonic acid (500 μM) for 1.5 minutes at 27° C. in the absence or presence of test compounds according to the methods of A. T. Evans, et al., Biochem Pharm. […] Res. Comm. […] Compounds are screened at 300 μM.

[4] = target: T3, 5-Lipoxygenase (crude enzyme preparation from rat basophilic leukemia cells, RBL-1) (Rattus norvegicus, UniProt P12527); assay: 5-Lipoxygenase screen (5-LO), 5-HETE by RIA; settings: for inhibition at 30 µM: read-out: 5-LO percent inhibition; for inhibition at 1 µM: read-out: Percent inhibition of 5-LO, test conc. 1 μM (Table II)
T3 construct: crude enzyme preparation from rat basophilic leukemia cells (RBL-1); endogenous in cells; host or cells: rat basophilic leukemia cells (RBL-1)
T3 sequence (P12527 1-673): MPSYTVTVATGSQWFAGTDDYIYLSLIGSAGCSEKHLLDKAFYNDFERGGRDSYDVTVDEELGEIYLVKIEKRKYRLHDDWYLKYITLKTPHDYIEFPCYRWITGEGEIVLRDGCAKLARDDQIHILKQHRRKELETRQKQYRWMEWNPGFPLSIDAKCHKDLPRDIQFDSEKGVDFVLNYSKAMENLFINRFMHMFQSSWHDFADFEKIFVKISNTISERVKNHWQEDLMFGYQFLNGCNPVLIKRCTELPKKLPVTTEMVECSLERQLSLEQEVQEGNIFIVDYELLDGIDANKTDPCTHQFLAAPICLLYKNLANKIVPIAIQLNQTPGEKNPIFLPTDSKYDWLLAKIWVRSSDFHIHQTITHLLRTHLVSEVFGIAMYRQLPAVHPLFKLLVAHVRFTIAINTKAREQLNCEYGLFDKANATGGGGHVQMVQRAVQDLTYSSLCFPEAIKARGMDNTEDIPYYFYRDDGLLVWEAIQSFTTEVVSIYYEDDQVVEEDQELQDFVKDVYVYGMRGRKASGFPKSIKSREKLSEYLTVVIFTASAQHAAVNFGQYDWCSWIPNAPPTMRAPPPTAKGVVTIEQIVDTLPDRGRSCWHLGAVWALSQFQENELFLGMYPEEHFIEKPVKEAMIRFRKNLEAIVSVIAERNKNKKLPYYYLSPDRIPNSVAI
Procedure: as §1
5-Lipoxygenase catalyzes the oxidative metabolism of arachidonic acid to […] (5-HETE), the initial reaction leading to the formation of the leukotrienes. Briefly, the testing procedure utilizes a crude enzyme preparation from rat basophilic leukemia cells (RBL-1) according to the methods of T. Shimuzu et al. Pro. […] Test compounds are pre-incubated with the enzyme preparation for 5 minutes at room temperature and the reaction is initiated by the addition of arachidonic acid. Following an 8 minute incubation at room temperature, the reaction is terminated by the addition of citric acid and concentrations of 5-HETE are determined by RIA. Compounds are screened at 30 μM.

Row | Structure (SMILES) | LPO percent inhibition [1] [%] | COX-1 percent inhibition [2] [%] | inhibition at 300 µM [3] [%] | inhibition at 30 µM [4] [%] | inhibition at 1 µM [4] [%] | IC50 ([1]; reference compound under screen conditions) [µM]
1 | CC1(c2ccccc2)OC(=O)C(O)=C1O (centres unmarked) [Example 1, 3,4-Dihydroxy-5-methyl-5-phenyl-2(5H)-furanone] | 63 | -12 | 3 | 58 |  | 
2 | CC(C)Cc1ccc(C2(C)OC(=O)C(O)=C2O)cc1 (centres unmarked) [Example 3, 3,4-Dihydroxy-5-methyl-5-[4-(2-methylpropyl)phenyl]-2(5H)-furanone] | 78 | 2 | -4 | 99 |  | 
3 | CC1(c2ccc(Cl)cc2)OC(=O)C(O)=C1O (centres unmarked) [Example 4, 5-(4-Chlorophenyl)-3,4-dihydroxy-5-methyl-2(5H)-furanone] | 54 | 2 | 24 | 2 |  | 
4 | O=C1OC(CCOc2ccc(Oc3ccccc3)cc2)C(O)=C1O (centres unmarked) [Example 15, 3,4-Dihydroxy-5-[2-(4-phenoxy)phenoxyethyl]-2(5H)-furanone] | -5 | 9 | -4 | 100 | 52 | 
5 | O=C1OC(CCOc2ccc3oc(-c4ccccc4)cc(=O)c3c2)C(O)=C1O (centres unmarked) [Example 16, 3,4-Dihydroxy-5-[2-(flavone-6-oxy)ethyl]-2(5H)-furanone] | 76 | 17 | 2 | 100 | 54 | 
6 | O=C1OC(CCOc2ccc3oc4ccccc4c3c2)C(O)=C1O (centres unmarked) [Example 17, 5-[2-(Dibenzofuran-2-oxy)ethyl]-3,4-dihydroxy-2(5H)-furanone] | 74 | 17 | 21 | 99 | 60 | 
7 | O=C1OC(CCOc2cccc3ccccc23)C(O)=C1O (centres unmarked) [Example 18, 3,4-Dihydroxy-5-[2-(1-naphthoxy)ethyl]-2(5H)-furanone] | 71 | 11 | -12 | 99 | 49 | 
8 | O=C1OC(CCN2C(=O)c3cccc4cccc(c34)C2=O)C(O)=C1O (centres unmarked) [Example 19, 3,4-Dihydroxy-5-[2-(1,8-naphthalimide)-N-ethyl]-2(5H)-furanone] | 68 | 9 | 2 | 86 |  | 
9 | O=C1OC(CCN2c3cccc4cccc(c34)S2(=O)=O)C(O)=C1O (centres unmarked) [Example 20, 3,4-Dihydroxy-5-[2-(1,8-naphthosultam)-N-ethyl]-2(5H)-furanone] | 61 | -15 | 13 | 91 | 38 | 
10 | O=C1OC(CCOc2ccccc2Cc2ccccc2)C(O)=C1O (centres unmarked) [Example 21, 3,4-Dihydroxy-5-[2-(diphenylmethane-2-oxy)ethyl]-2(5H)-furanone] | 68 | 12 | 10 | 101 | 62 | 
11 | O=C1OC(CCOc2ccc(-c3ccccc3)cc2)C(O)=C1O (centres unmarked) [Example 22, 5-[2-((1,1'-Biphenyl)-4-oxy)ethyl]-3,4-dihydroxy-2(5H)-furanone] | 74 | 18 | 10 | 99 | 55 | 
12 | O=C1OC(CCOc2ccc3ccccc3n2)C(O)=C1O (centres unmarked) [Example 23, 3,4-Dihydroxy-5-[2-(quinoline-2-oxy)ethyl]-2(5H)-furanone] |  |  | -2 | 93 |  | 
13 | O=C1OC(CCSc2cccc3ccccc23)C(O)=C1O (centres unmarked) [Example 25, 3,4-Dihydroxy-5-[2-(naphthyl-1-thio)ethyl]-2(5H)-furanone] | 74 | 6 | 19 | 102 | 56 | 
14 | O=C1OC(CCSc2ccc3ccccc3c2)C(O)=C1O (centres unmarked) [Example 26, 3,4-Dihydroxy-5-[2-(naphthyl-2-thio)ethyl]-2(5H)-furanone] | 77 | 12 | 12 | 101 | 54 | 
15 | O=C1OC(CCC#Cc2ccccc2)C(O)=C1O (centres unmarked) [Example 27, 3,4-Dihydroxy-5-[(4-phenyl)-3-butynyl]-2(5H)-furanone] | 59 | 5 | 20 | 42 |  | 
16 | Cc1c(C)c2c(c(C)c1O)CCC(C)(CCCC(C)CCCC(C)CCCC(C)C)O2 (stereo not drawn) [alpha-tocopherol, reference compound] |  |  |  |  |  | 280
